Test results published in ChEMBL document CHEMBL1201862, “PubChem BioAssay data set” (2004).
Active and inactive are the calls of the source.

Experiments:
[1] = biological target: Beta-lactamase (Salmonella choleraesuis (strain SC-B67), UniProt Q5J463); test: Epi-absorbance-based counterscreen for selective VIM-2 inhibitors: dose response biochemical high throughput screening assay to identify inhibitors of TEM-1 serine-beta-lactamase.
[2] = biological target: T1, Beta Lactamase (Pseudomonas aeruginosa, UniProt Q932Y6); test: VIM-2 CCF2 hydrolysis inhibition, assay artifact filter – biochemical, FRET readout, CCF2 substrate, artefact control for selective VIM-2 inhibitor project, dose response (AID 1926)
T1 sequence (Q932Y6 whole entry): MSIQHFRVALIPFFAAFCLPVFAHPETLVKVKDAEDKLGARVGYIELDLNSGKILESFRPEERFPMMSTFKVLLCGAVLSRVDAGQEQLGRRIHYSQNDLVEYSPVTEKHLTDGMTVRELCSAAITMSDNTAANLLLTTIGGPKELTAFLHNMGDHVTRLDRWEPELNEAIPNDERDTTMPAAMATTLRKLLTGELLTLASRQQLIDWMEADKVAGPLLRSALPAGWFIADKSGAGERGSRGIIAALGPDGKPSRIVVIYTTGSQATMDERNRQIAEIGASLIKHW

[3] = biological target: T2, Beta-lactamase (Pseudomonas aeruginosa, UniProt Q79MP6); test: inhibition of IMP-1 beta-lactamase activity – biochemical, epi-absorbance, selectivity assay for VIM-2 inhibitor project, dose response (AID 1920)
T2 sequence (Q79MP6 whole entry): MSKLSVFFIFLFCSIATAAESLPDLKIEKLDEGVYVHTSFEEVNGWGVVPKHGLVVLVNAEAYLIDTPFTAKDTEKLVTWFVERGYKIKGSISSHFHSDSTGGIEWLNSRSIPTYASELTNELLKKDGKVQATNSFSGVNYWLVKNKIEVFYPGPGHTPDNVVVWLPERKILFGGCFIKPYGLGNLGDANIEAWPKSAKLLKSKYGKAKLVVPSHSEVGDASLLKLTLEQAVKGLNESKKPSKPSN

[4] = biological target: T2, Beta-lactamase; test: […] counterscreen for selective VIM-2 inhibitors: dose response biochemical high throughput screening assay to identify inhibitors of IMP-1 metallo-beta-lactamase.
[5] = biological target: T1, Beta Lactamase; test: concentration-dependent VIM-2 enzyme inhibition – biochemical, epi-absorbance readout, selective inhibitors, dose response (AID 1919)
[6] = biological target: T3, Tyrosine-protein phosphatase non-receptor type 11 (Homo sapiens, UniProt Q06124); test: PTPN11 enzyme inhibitors – biochemical, selectivity assay for STEP inhibitor project, dose response (AID 602367); format: functional; details: read-out: IC50_Mean
T3 sequence (Q06124 whole entry): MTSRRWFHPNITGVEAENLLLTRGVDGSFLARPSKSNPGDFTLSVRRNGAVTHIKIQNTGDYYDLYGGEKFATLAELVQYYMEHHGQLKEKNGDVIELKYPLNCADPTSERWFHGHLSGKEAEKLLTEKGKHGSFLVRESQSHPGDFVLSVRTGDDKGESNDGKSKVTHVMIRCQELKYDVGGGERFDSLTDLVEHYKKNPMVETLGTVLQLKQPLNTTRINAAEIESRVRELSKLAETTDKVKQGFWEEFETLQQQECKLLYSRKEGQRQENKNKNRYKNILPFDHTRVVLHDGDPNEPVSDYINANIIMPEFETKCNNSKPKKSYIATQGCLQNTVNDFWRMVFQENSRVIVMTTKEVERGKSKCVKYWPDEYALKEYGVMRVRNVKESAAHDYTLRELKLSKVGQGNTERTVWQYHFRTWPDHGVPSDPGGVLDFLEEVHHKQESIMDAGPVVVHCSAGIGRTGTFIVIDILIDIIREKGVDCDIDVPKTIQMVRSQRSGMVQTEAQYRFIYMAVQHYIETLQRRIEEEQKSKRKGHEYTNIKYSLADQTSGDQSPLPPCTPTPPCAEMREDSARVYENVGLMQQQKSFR

[7] = biological target: T4, Tyrosine-protein phosphatase non-receptor type 5 (Homo sapiens, UniProt P54829); test: PTPN5 enzyme inhibition – biochemical, fluorescence intensity, uHTS hits, confirmation (AID 602372); format: functional; details: read-out: IC50_Mean
T4 sequence (P54829 whole entry): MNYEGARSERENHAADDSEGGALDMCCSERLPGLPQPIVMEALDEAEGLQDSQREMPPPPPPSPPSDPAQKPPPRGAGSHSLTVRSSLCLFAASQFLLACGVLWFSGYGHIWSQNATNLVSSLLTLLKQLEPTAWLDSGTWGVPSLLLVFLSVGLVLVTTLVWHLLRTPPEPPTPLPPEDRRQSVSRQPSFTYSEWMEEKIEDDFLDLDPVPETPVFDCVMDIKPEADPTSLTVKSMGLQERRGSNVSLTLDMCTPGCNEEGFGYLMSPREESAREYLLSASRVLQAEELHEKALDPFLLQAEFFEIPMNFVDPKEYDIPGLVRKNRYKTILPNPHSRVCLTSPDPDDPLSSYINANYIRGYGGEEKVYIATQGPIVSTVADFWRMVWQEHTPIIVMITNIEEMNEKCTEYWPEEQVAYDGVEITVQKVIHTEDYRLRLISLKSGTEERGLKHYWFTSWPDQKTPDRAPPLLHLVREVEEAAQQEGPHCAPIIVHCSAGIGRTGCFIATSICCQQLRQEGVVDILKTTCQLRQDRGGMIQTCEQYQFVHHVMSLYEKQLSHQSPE

[8] = biological target: Arf-GAP with SH3 domain, ANK repeat and PH domain-containing protein 1 (Homo sapiens, UniProt Q9ULH1); format: functional;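 further: biochemical fluorescence polarization dose–response screen measuring inhibition of ASAP1; ASAP1 GAP domain stimulating GTP hydrolysis by truncated human ARF1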
Arf-GAP with SH3 domain, ANK repeat and PH domain-containing protein 1, sequence (Q9ULH1 whole entry, the tested form may be a part): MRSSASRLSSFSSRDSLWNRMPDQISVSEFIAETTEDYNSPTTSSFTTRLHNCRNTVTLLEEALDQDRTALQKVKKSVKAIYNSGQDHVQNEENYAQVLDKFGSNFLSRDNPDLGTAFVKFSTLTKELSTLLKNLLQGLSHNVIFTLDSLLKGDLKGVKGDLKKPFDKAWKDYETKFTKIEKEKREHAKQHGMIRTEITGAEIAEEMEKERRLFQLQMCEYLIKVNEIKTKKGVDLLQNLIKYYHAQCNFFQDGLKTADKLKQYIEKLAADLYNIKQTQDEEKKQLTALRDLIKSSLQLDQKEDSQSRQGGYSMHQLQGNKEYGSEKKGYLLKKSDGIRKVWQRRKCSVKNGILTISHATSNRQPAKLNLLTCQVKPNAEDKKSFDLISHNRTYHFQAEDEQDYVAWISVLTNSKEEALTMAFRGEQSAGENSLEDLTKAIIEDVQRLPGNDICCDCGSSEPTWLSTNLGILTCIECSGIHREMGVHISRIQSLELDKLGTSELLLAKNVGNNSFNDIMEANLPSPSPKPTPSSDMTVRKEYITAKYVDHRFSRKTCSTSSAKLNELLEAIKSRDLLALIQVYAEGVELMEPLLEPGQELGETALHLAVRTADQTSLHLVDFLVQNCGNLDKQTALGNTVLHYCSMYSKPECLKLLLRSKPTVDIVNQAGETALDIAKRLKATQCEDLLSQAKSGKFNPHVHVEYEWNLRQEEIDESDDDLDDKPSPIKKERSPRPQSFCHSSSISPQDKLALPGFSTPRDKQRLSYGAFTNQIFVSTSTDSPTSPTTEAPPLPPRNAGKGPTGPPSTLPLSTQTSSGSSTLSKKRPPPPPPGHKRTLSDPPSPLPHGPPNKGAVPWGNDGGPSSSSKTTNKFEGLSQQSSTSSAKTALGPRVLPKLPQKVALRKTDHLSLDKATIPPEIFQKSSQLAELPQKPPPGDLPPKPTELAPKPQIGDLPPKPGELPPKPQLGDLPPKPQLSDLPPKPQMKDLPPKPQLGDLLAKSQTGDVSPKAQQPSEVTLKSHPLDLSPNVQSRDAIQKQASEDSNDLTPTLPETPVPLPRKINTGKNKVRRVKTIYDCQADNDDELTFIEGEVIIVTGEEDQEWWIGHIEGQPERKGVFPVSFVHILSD

[9] = biological target: Dual specificity protein phosphatase 3 (Homo sapiens, UniProt P51452); test: VHR phosphatase inhibition, dose response, selectivity assay for STEP inhibitor project, biochemical (AID 602374); format: functional; details: read-out: IC50_Mean
Dual specificity protein phosphatase 3, sequence (P51452 whole entry): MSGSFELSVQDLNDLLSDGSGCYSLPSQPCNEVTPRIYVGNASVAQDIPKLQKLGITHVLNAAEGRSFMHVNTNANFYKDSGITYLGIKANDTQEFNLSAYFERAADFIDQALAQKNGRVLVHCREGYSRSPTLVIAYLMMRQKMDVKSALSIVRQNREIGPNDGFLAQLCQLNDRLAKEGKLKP

[10] = mouse fibroblast viability loss – cell-based, cherry-pick samples, set 2, cytotoxicity control for T. cruzi growth inhibitor project, dose response (AID 651817); format: functional; details: NIH3T3
[11] = biological target: T5, Sentrin-specific protease 8 (Homo sapiens, UniProt Q96LD8); format: functional
T5 sequence (Q96LD8 whole entry): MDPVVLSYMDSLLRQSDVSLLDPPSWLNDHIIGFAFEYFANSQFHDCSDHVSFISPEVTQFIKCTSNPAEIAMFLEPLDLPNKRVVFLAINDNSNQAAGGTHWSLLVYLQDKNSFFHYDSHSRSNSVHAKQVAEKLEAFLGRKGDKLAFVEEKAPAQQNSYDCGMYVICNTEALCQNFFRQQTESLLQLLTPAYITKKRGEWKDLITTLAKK

[12] = biological target: T5, Sentrin-specific protease 8; format: functional; remark: listed apart in the source
[13] = biological target: T6, Replicative DNA helicase DnaB (Mycobacterium tuberculosis, UniProt P9WMR3); test: DnaB intein splicing inhibitors, dose response, biochemical, cell-free fluorescence (AID 449749); format: functional
T6 sequence (P9WMR3 whole entry): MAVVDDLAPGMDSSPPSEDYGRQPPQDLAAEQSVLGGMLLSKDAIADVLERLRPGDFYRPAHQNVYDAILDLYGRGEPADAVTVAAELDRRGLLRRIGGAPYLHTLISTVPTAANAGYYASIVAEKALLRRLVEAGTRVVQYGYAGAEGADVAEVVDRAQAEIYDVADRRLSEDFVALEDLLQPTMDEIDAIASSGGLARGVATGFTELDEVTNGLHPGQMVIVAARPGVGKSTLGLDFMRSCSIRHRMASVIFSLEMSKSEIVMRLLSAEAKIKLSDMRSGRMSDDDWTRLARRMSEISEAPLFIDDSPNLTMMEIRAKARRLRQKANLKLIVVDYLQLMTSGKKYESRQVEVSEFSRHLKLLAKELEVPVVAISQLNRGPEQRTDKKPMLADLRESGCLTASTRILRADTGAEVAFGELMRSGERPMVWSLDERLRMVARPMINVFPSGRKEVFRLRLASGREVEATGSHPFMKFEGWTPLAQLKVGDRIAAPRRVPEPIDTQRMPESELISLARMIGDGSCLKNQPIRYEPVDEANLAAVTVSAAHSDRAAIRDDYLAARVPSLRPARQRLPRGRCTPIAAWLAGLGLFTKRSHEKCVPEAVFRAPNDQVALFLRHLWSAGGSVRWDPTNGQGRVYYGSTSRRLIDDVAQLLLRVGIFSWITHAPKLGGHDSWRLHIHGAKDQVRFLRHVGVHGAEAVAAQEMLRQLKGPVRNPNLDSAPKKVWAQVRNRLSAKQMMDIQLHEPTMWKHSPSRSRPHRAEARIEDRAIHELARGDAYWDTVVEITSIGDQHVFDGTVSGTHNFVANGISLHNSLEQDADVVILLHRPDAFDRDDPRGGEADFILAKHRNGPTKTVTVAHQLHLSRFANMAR

[14] = biological target: T7, Protein RecA (Mycobacterium tuberculosis, UniProt P9WHJ3); test: Fluorescence Cell-Free Homogeneous Dose Retest to Identify Inhibitors of RecA-Intein Splicing Activity. [Related pubchem assays (depositor defined):AID2097, AID2223, AID489010, AID492950]; format: functional
T7 sequence (P9WHJ3 whole entry): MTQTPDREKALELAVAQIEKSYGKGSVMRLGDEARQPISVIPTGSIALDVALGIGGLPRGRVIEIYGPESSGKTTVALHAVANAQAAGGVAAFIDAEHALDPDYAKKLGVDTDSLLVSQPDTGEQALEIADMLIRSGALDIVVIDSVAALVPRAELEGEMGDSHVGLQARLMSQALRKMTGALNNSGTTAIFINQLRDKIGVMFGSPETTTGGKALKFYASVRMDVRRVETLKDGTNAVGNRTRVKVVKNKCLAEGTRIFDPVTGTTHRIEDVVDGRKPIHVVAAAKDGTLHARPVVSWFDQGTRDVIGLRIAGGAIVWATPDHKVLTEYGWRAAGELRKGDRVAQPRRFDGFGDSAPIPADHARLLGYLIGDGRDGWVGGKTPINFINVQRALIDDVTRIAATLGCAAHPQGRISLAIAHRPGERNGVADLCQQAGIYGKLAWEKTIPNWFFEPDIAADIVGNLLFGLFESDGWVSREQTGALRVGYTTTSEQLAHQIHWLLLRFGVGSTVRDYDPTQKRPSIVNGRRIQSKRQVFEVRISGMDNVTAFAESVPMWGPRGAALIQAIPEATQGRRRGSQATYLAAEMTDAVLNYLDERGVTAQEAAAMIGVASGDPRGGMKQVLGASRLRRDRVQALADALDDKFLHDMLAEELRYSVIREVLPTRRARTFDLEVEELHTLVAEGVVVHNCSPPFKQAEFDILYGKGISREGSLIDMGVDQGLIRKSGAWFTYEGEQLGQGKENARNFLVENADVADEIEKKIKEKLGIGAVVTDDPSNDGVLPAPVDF

[15] = biological target: Broad substrate specificity ATP-binding cassette transporter ABCG2 (Homo sapiens, UniProt Q9UNQ0); test: blockers of JC-1 export by ABCG2 – Ig-MXP3 cells, flow cytometry, dose response (AID 1690); format: functional
Broad substrate specificity ATP-binding cassette transporter ABCG2, sequence (Q9UNQ0 whole entry): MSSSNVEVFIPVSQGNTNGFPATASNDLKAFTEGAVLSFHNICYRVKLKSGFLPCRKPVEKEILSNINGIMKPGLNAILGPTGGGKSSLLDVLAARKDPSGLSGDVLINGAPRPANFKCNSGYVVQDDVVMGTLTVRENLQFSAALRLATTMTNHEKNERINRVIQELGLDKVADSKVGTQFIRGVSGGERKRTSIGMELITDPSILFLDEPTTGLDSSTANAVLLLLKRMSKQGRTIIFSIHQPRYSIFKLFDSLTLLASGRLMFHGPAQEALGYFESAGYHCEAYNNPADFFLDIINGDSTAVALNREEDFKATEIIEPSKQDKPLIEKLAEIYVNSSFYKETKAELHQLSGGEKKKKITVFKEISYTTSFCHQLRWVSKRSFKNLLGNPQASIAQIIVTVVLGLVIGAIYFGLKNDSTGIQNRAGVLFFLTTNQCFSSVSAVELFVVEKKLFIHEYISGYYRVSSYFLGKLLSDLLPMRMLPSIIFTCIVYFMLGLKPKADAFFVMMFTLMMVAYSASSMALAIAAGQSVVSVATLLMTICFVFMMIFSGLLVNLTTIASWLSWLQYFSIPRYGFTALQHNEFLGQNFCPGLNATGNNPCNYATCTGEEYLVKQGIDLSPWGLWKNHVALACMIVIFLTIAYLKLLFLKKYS

Beta-lactamase (Salmonella choleraesuis (strain SC-B67), UniProt Q5J463), sequence (Q5J463 whole entry): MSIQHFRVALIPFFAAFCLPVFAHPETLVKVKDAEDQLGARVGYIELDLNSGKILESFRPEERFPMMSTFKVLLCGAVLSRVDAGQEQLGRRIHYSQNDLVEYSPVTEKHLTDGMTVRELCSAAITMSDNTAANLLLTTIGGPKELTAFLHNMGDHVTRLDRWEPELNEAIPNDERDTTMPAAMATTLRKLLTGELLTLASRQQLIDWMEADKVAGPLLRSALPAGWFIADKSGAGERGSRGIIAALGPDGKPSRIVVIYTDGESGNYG

SMILES: O=C(O)COc1ccccc1/C=N/n1c(S)nnc1C1CCCCC1
- IC50 [1]: > 59.6 µM (inactive)
- IC50 [2]: 8.62 µM (active)
- IC50 [3]: > 59.6 µM (inactive)
- IC50 [4]: > 59.6 µM (inactive)
- IC50 [5]: 23.1 µM (inactive)

SMILES: Cc1nnc2sc(-c3ccc(NC(=O)c4ccc(-c5ccc(Cl)cc5Cl)o4)cc3)nn12
- IC50 [6]: 0.409 µM (active)
- IC50 [7]: > 80 µM (inactive)
- IC50 [8]: 2.48 µM (active)
- IC50 [9]: 0.716 µM (active)

SMILES: C[C@H](CO)N1C[C@H](C)[C@H](CN(C)Cc2ccc(Cl)c(Cl)c2)Oc2c(NC(=O)Nc3ccc(C(F)(F)F)cc3)cccc2C1=O
- AC50 [10]: 12.9 µM (active)

SMILES: Cc1cc(=O)n(-c2ccc(O)cc2)[nH]1
- IC50 [11]: 19.1 µM (active)
- IC50 [12]: 17.2 µM (active)
- AC50 [13]: 2.3 µM (active)
- EC50 [14]: 0.774 µM (active)

SMILES: COc1ccc2cc(C(=O)OC(C)C)sc(=O)c2c1OC
- EC50 [15]: 24.4 µM (inactive)
